Experimental data: US20260108442A1, “COMPOUND FOR USE IN PROTECTING SKIN” (TDELTAS LIMITED, priority 2013, published 2026)

What was measured:
hands of the user (skin) = experiment: Neat topical application to dry hands, visual inspection; format: in vivo; details: used neat, massaged into dry hands, inspected after 30 minutes
Description: D-betahydroxybutyrate butanediol monoester was used neat in this experiment. The hands of the user were visually inspected prior to application of the D-betahydroxybutyrate butanediol monoester. […] D-betahydroxybutyrate butanediol monoester was applied to the hands and massaged in to the skin thoroughly.

[1] = test system: Primary human dermal fibroblasts (HDF); experiment: Live and dead assay (Calcein AM / EthD-III) of human dermal fibroblast growth; format: cell-based; details: 4 mM in basal medium, after 10 days incubation, FIG. 1
Description: Primary human dermal fibroblasts (HDF), with a seeding capacity of 2,500 cells/cm^2, […] (HF) basal medium (TCS Cellworks) or basal medium containing 4 mM of the ketone ester, deltaG. The basal medium was changed daily. Cell viability was determined using a live and dead assay kit, with two colour fluorescence staining of live and dead cells using the probes, Calcein AM and EthD-III.

[2] = test system: Human dermal fibroblast cells; experiment: Cell survival after UVB irradiation, Trypan blue exclusion; format: cell-based; details: viable cells at 48 hours after irradiation, FIG. 2
Description: Human dermal fibroblast cells were cultured in basal medium in 6-well plates at 50,000 cells per well. The cells were incubated in medium alone or with added 4 mM R-3-hydroxybutyl-(R)-3-hydroxybutyrate. After reaching 80-90% confluence, cells were washed with phosphate-buffered saline and the medium was replaced with a thin layer of Hanks buffer, (a balanced salt solution designed to use with cells in non-CO2 atmospheric conditions). Cells were irradiated at doses of 25, 50, 100, 150, 300 and 600 mJ/cm^2 using a portable UVB source (302 nm) with a fluence rate of 0.9 mW/cm^2 at cell level. UV irradiation was performed in a fume hood to maintain sterility. After irradiation, cells were washed and incubated in medium alone or with added 4 mM R-3-hydroxybutyl-(R)-3-hydroxybutyrate (as they had been before irradiation). Another group of irradiated cells, which had initially been grown in basal medium without deltaG, was incubated with added 4 mM R-3-hydroxybutyl-(R)-3-hydroxybutyrate. Cell survival was determined by counting viable cells using Trypan blue exclusion at 48 hours after irradiation.

## C[C@@H](O)CCOC(=O)C[C@@H](C)O [R-3-hydroxybutyl-(R)-3-hydroxybutyrate]
Hands of the user (skin)
  visual inspection of hands (dryness, wrinkling, feel): visually noticeable improvement in properties including less dryness, less wrinkling and an improved feel
[1]; compared with control
  dead cells: fewer dead cells
[1]; vs. 75% in control, P<0.05
  live cells: 89%
[2]; 4 mM both before and after radiation exposure, compared with after radiation only
  protection from UVB radiation (cell survival): conferred no further benefit
[2]; 4 mM given to the cells after radiation, UVB 302 nm, doses between 150 and 600 mJ/cm^2, p<0.05
  protection from UVB radiation (cell survival): protected human dermal fibroblasts from UVB radiation
